Structures can show the parent of a compound that is named as a salt.
Assays:
[1] = Determination of the solubility in 5% strength aqueous dextrose solution; format: physicochemical; conditions: saline or isotonic, thermodynamic from solid, room temperature, 24 h
Experimental: a) Determination of the Solubility:
The test substance is suspended in 5% strength aqueous dextrose solution. This suspension is shaken at room temperature for 24 h. After ultracentrifugation at 224 000 g for 30 min, the supernatant is diluted with DMSO and analysed by HPLC. A two-point calibration plot of the test compound in DMSO is used for quantification.
Agilent 1100 with DAD (G1315A), quat. Pump (G1311A), autosampler CTC HTS PAL, degasser (G1322A) and column thermostat (G1316A); column: Phenomenex Gemini C18, 5 μm, 50 mm×2 mm; temperature: 40° C.; eluent A: water/phosphoric acid pH 2, eluent B: acetonitrile; flow rate: 0.7 ml/min; gradient: 0-0.5 min 85% A, 15% B; ramp 0.5-3 min 10% A, 90% B; 3-3.5 min 10% A, 90% B; ramp 3.5-4 min 85% A, 15% B; 4-5 min 85% A, 15% B.
Agilent 1100 with DAD (G1315A), quat. pump (G1311A), autosampler CTC HTS PAL, degasser (G1322A) and column thermostat (G1316A); column: VDSoptilab Kromasil 100 C18, 3.5 μm, 60 mm×2.1 mm; temperature: 30° C.; eluent A: water+5 ml of perchloric acid/liter, eluent B: acetonitrile; flow rate: 0.75 ml/min; gradient: 0-0.5 min 98% A, 2% B; ramp 0.5-4.5 min 10% A, 90% B; 4.5-6 min 10% A, 90% B; ramp 6.5-6.7 min 98% A, 2% B; 6.7-7.5 min 98% A, 2% B.

[2] = Stability in buffer at various pH values; format: physicochemical
Experimental: b) Stability in Buffer at Various pH Values:
0.3 mg of the test substance is weighed into a 2 ml HPLC vial and 0.5 ml of acetonitrile or acetonitrile/DMSO (9:1) is added. The substance is dissolved by putting the sample vessel in an ultrasonic bath for about 10 seconds. Then 0.5 ml of the respective buffer solution is added, and the sample is again treated in the ultrasonic bath.
pH 2: 0.03 mol of citric acid, 0.061 mol of sodium chloride and 0.0082 mol of hydrochoric acid ad 1 liter of water;
pH 4: 1 liter of Millipore water is adjusted to pH 4.0 with 1 N hydrochloric acid;
pH 5: 0.096 mol of citric acid and 0.2 mol of sodium hydroxide ad 1 liter of water;
pH 6: 0.06 mol of citric acid and 0.16 mol of sodium hydroxide ad 1 liter of water;
pH 7.4: 90.0 g of sodium chloride, 13.61 g of potassium dihydrogen phosphate and 83.35 g of 1 N sodium hydroxide solution are made up to 1 liter with water; this solution is then further diluted 1:10 with Millipore water.
pH 8: 0.013 mol of borax and 0.021 mol of hydrochloric acid ad 1 liter of water.
5 μl portions of the test solution are analyzed by HPLC for their content of unchanged test substance, and of parent substance (A) produced, every hour over a period of 24 hours at 37° C. The percentage areas of the appropriate peaks are used for quantification.
The ratios of the peak areas (F) at the respective time points in relation to the peak areas at the starting time are shown in Table 2 for representative exemplary embodiments: […]

SMILES | solubility thermodynamic at 24 h [1] [µg/mL] | % test substance after 4 h [F(t = 4 h) × 100/F(t = 0 h)] ([2]; pH 4, 37° C.) [%] | % test substance after 24 h [F(t = 24 h) × 100/F(t = 0 h)] ([2]; pH 4, 37° C.) [%] | % test substance after 4 h [F(t = 4 h) × 100/F(t = 0 h)] ([2]; pH 7.4, 37° C.) [%] | % test substance after 24 h [F(t = 24 h) × 100/F(t = 0 h)] ([2]; pH 7.4, 37° C.) [%] | % test substance after 24 h [F(t = 24 h) × 100/F(t = 0 h)] ([2]; pH 4, 37° C., disodium salt) [%] | % test substance after 24 h [F(t = 24 h) × 100/F(t = 0 h)] ([2]; pH 7.4, 37° C., disodium salt) [%]
C[C@H](NC(=O)[C@@H](N)Cc1cnc[nH]1)C(=O)OCCOc1ccc(-c2c(C#N)c(N)nc(SCc3csc(-c4ccc(Cl)cc4)n3)c2C#N)cc1 [Example 15, 2-{4-[2-Amino-6-({[2-(4-chlorophenyl)-1,3-thiazol-4-yl]methyl}sulfanyl)-3,5-dicyanopyridin-4-yl]-phenoxy}ethyl L-histidyl-L-alaninate dihydrochloride] | 450 |  |  |  |  |  | 
N#Cc1c(N)nc(SCc2csc(-c3ccc(Cl)cc3)n2)c(C#N)c1-c1ccc(OCCOC(=O)[C@H](Cc2ccccc2)NC(=O)[C@@H](N)CCCCN)cc1 [Example 18, 2-{4-[2-Amino-6-({[2-(4-chlorophenyl)-1,3-thiazol-4-yl]methyl}sulfanyl)-3,5-dicyanopyridin-4-yl]-phenoxy}ethyl L-lysyl-L-phenylalaninate dihydrochloride] | 450 |  |  |  |  |  | 
CC(C)[C@H](NC(=O)CCN)C(=O)OCCOc1ccc(-c2c(C#N)c(N)nc(SCc3csc(-c4ccc(Cl)cc4)n3)c2C#N)cc1 [Example 2, 2-{4-[2-Amino-6-({[2-(4-chlorophenyl)-1,3-thiazol-4-yl]methyl}thio)-3,5-dicyanopyridin-4-yl]-phenoxy}ethyl β-alanyl-L-valinate hydrochloride] |  | 100 | 100 | 100 | 100 |  | 
N#Cc1c(N)nc(SCc2csc(-c3ccc(Cl)cc3)n2)c(C#N)c1-c1ccc(OCCOC(=O)CC[C@H](NC(=O)CCC(=O)O)C(=O)O)cc1 [Example 9, (2S)-5-(2-{4-[2-Amino-6-({[2-(4-chlorophenyl)-1,3-thiazol-4-yl]methyl}thio)-3,5-dicyanopyridin-4-yl]phenoxy}ethoxy)-2-[(3-carboxypropanoyl)amino]-5-oxopentanoic acid] |  | 100 | 100 | 100 | 100 |  | 
C[C@H](NC(=O)[C@@H](N)CCCNC(=N)N)C(=O)OCCOc1ccc(-c2c(C#N)c(N)nc(SCc3csc(-c4ccc(Cl)cc4)n3)c2C#N)cc1 [Example 14, 2-{4-[2-Amino-6-({[2-(4-chlorophenyl)-1,3-thiazol-4-yl]methyl}sulfanyl)-3,5-dicyanopyridin-4-yl]-phenoxy}ethyl L-arginyl-L-alaninate dihydrochloride] | > 500 | 100 | 100 | 68 | 8 |  | 
CC(C)[C@H](NC(=O)[C@@H](N)CCCNC(=N)N)C(=O)OCCOc1ccc(-c2c(C#N)c(N)nc(SCc3csc(-c4ccc(Cl)cc4)n3)c2C#N)cc1 [Example 3, 2-{4-[2-Amino-6-({[2-(4-chlorophenyl)-1,3-thiazol-4-yl]methyl}thio)-3,5-dicyanopyridin-4-yl]-phenoxy}ethyl L-arginyl-L-valinate dihydrochloride] | 450 | 100 | 100 | 99 | 55 |  | 
C[C@@H](NC(=O)[C@@H](N)CCCCN)C(=O)OCCOc1ccc(-c2c(C#N)c(N)nc(SCc3csc(-c4ccc(Cl)cc4)n3)c2C#N)cc1 [Example 12, 2-{4-[2-Amino-6-({[2-(4-chlorophenyl)-1,3-thiazol-4-yl]methyl}sulfanyl)-3,5-dicyanopyridin-4-yl]-phenoxy}ethyl L-lysyl-D-alaninate dihydrochloride] | > 500 | 99 | 98 | 49 | 2 |  | 
CC(C)C[C@H](NC(=O)[C@@H](N)CCCCN)C(=O)OCCOc1ccc(-c2c(C#N)c(N)nc(SCc3csc(-c4ccc(Cl)cc4)n3)c2C#N)cc1 [Example 11, 2-{4-[2-Amino-6-({[2-(4-chlorophenyl)-1,3-thiazol-4-yl]methyl}sulfanyl)-3,5-dicyanopyridin-4-yl]-phenoxy}ethyl L-lysyl-L-leucinate dihydrochloride] | > 500 | 100 | 100 | 90 | 55 |  | 
N#Cc1c(N)nc(SCc2csc(-c3ccc(Cl)cc3)n2)c(C#N)c1-c1ccc(OCCOC(=O)CNC(=O)[C@@H](N)CCCCN)cc1 [Example 17, 2-{4-[2-Amino-6-({[2-(4-chlorophenyl)-1,3-thiazol-4-yl]methyl}sulfanyl)-3,5-dicyanopyridin-4-yl]-phenoxy}ethyl L-lysylglycinate dihydrochloride] | > 500 |  |  |  |  |  | 
N#Cc1c(N)nc(SCc2csc(-c3ccc(Cl)cc3)n2)c(C#N)c1-c1ccc(OCCOC(=O)CC[C@@H](N)C(=O)NCCN)cc1 [Example 13, 2-{4-[2-Amino-6-({[2-(4-chlorophenyl)-1,3-thiazol-4-yl]methyl}sulfanyl)-3,5-dicyanopyridin-4-yl]-phenoxy}ethyl N-(2-aminoethyl)-D-α-glutaminate dihydrochloride] | > 500 | 100 | 99 | 24 | 0 |  | 
N#Cc1c(N)nc(SCc2csc(-c3ccc(Cl)cc3)n2)c(C#N)c1-c1ccc(OCCOC(=O)CC[C@H](NC(=O)CCC(=O)O)C(=O)O)cc1 [Example 10, (2S)-5-(2-{4-[2-Amino-6-({[2-(4-chlorophenyl)-1,3-thiazol-4-yl]methyl}thio)-3,5-dicyanopyridin-4-yl]phenoxy}ethoxy)-2-[(3-carboxypropanoyl)amino]-5-oxopentanoic acid disodium salt] | 390 |  |  |  |  | 99 | 99
